Laboratory results as given in patent publication US20050019260A1, “Animal model for allergy” (priority 2001, published 2005).

System: sheep mammary gland
Assay: Single intramammary infusion of lipopolysaccharide, MAL cell collection
Format: in vivo

For lipopolysaccharide, the MAL cell influx (24 h after single intramammary infusion) was “predominantly neutrophils” and the MAL cell influx (day 5 after single intramammary infusion) was “macrophage infiltration”.
